Data: US4486433A, “Fused-ring amino-pyrazines as bradycardiacs” (Dr. Karl Thomae Gesellschaft mit beschrankter Haftung, priority 1980, dated 1984)

System: circulation of intact, anesthetized rats
Test: Effect upon blood pressure and heart rate in intact, anesthetized rats after intravenous injection
Assay type: in vivo
Conditions: 3 mg/kg i.v.
Description: 1. Effect upon blood pressure and heart rate
The changes in the circulation of intact, anesthetized rats after intravenous injection of the test compound were recorded.
Male laboratory rats having a body weight of 120-360 gm were anesthetized with pentobarbital (70 mgm/kg). The animals breathed spontaneously through a tracheal cannula. The blood pressure was continuously measured in an A. carotis with the aid of an electro-mechanical pressure transducer; the pulse wave triggered a tachograph which continuously recorded the heart rate. Both parameters were plotted on a polygraph. The test compound was injected through a catheter into a V. jugularis.
At a dose of 3 mgm/kg i.v. the test compounds produced an initial increase in the blood pressure of short duration and then a long-lasting decrease in the blood pressure. The decrease in the heart rate was distinct and of long duration.

Row | SMILES | Blood pressure, depressor phase (maximum value) | Blood pressure, pressor phase (maximum value) | Heart rate reduction (maximum value)
1 | CN1CCc2ncc(N)nc2CC1.Cl.Cl [C, 2-Amino-6,7,8,9-tetrahydro-7-methyl-5H-pyrazino[2,3-d]azepine dihydrochloride] | -36 mm Hg | +26 mm Hg | -105 beats/minute
2 | Cl.Nc1cnc2c(n1)CCN(C1CC1)CC2 [H, 2-Amino-7-cyclopropyl-6,7,8,9-tetrahydro-5H-pyrazino[2,3-d]azepine hydrochloride] | -28 mm Hg | +51 mm Hg | -110 beats/minute
3 | C=CCN1CCc2ncc(N)nc2CC1.Cl.Cl [B, 7-Allyl-2-amino-6,7,8,9-tetrahydro-5H-pyrazino[2,3-d]azepine dihydrochloride] | -20 mm Hg | +40 mm Hg | -122 beats/minute
4 | CCN1CCc2nc(C)c(N)nc2CC1.Cl.Cl [F, 7-Ethyl-2-amino-6,7,8,9-tetrahydro-3-methyl-5H-pyrazino-[2,3-d]azepine dihydrochloride] | -10 mm Hg | +38 mm Hg | -78 beats/minute
5 | CCN1CCc2nc(N)c(Cl)nc2CC1.Cl [E, 7-Ethyl-2-amino-3-chloro-6,7,8,9-tetrahydro-5H-pyrazino[2,3-d]azepine hydrochloride] | -11 mm Hg | +32 mm Hg | -70 beats/minute
6 | CCN1CCc2nc(N)cnc2C1.Cl.Cl [G, 6-Ethyl-2-amino-5,6,7,8-tetrahydro-pyrido[3,4-b]pyrazine dihydrochloride] | -41 mm Hg | +6 mm Hg | -145 beats/minute
7 | CCN1CCc2ncc(N)nc2CC1.Cl.Cl [A, 7-Ethyl-2-amino-6,7,8,9-tetrahydro-5H-pyrazino[2,3-d]azepine dihydrochloride] | -20 mm Hg | +61 mm Hg | -116 beats/minute
8 | CCN1CCc2nc(N)c(Br)nc2CC1.Cl [Compound D, 7-Ethyl-2-amino-3-bromo-6,7,8,9-tetrahydro-5H-pyrazino[2,3-d]azepine hydrochloride] | -5 mm Hg | +50 mm Hg | -55 beats/minute

System: presynaptic α-adrenoceptors
Test: Inhibition of electrically induced tachycardia in the spinal rat
Assay type: in vivo, rats
Conditions: i.v.
Description: There is an auto-regulation system of the noradrenaline release at the adrenergic nerve ends. The stimulation of presynaptic α-adrenoreceptors has an inhibiting effect upon the noradrenaline release and thus a limiting effect upon the adrenergic neurotransmission. Accordingly, upon stimulation of these "feedback receptors", the effect of a given adrenergic stimulation on the […] is reduced.
Male laboratory rats having a body weight of 350-400 gm were anesthetized with pentobarbital (50 mgm/kg i.p.), vagotomized, treated with atropine (1 mgm/kg s.c.), and a tracheal cannula was inserted. After enucleation of an eye, the orbita was punctured, the brain was destroyed, and a metal rod was pushed through the vertebral canal. Artificial respiration was applied to the animals, and they were pre-treated with gallamine (4 mgm/kg i.v.). […] Upon insertion of the rod into the vertebral canal, this uninsulated section is positioned in the area of the last cervical vertebra and the first thoracic vertebra. With the aid of a stimulator a supramaximal stimulus (rectangular impulses 50 V, 2 ms; 0.2 Hz; duration of stimulus 25 sec.) was applied against a counter-electrode inserted into the neck skin.
The blood pressure was measured in an A. carotis by means of an electro-mechanical pressure transducer. […] Both of these signals were recorded on a polygraph.

Row | SMILES | D50 (dose which inhibits the electrically induced tachycardia by 50%)
9 | CCN1CCc2nc(N)cnc2C1.Cl.Cl [G, 6-Ethyl-2-amino-5,6,7,8-tetrahydro-pyrido[3,4-b]pyrazine dihydrochloride] | 670 μgm/kg
10 | CCN1CCc2ncc(N)nc2CC1.Cl.Cl [A, 7-Ethyl-2-amino-6,7,8,9-tetrahydro-5H-pyrazino[2,3-d]azepine dihydrochloride] | 28 μgm/kg

System: postsynaptic α-adrenoreceptos
Test: Hypertensive activity in the spinal rat
Assay type: in vivo, rats
Conditions: i.v.
Description: 3. Effect on postsynaptic α-adrenoreceptos: Hypertensive activity in the spinal rat
The increase in blood pressure which occurs upon stimulation of postsynaptic α-adrenoreceptos was measured on the spinal rat model.
Male laboratory rats having a body weight of 200-250 gm were anesthetized (1.2 gm/kg urethane i.p., 1 mgm/kg atropine s/c/). Thereafter, the central spinal cord canal was opened, the spinal cord was severed at C1, and the medulla oblongata and the brain were destroyed with a metal sound. Artificial respiration was applied to the animals, and a polyethylene catheter was tied into a jugular vein. The blood pressure was measured in an A. carotis and continuously recorded by means of a Statham element on a Grass polygraph. The test compound was administered i.v. by way of the catheter.
From the raw data thus obtained, the dose of the test compound which increases the arterial blood pressure by 30 mm Hg (D30) was determined.

Row | SMILES | D30 (dose which increases the arterial blood pressure by 30 mm Hg)
11 | C=CCN1CCc2ncc(N)nc2CC1.Cl.Cl [B, 7-Allyl-2-amino-6,7,8,9-tetrahydro-5H-pyrazino[2,3-d]azepine dihydrochloride] | 2.6 mgm/kg
12 | CCN1CCc2nc(N)cnc2C1.Cl.Cl [G, 6-Ethyl-2-amino-5,6,7,8-tetrahydro-pyrido[3,4-b]pyrazine dihydrochloride] | 1.4 mgm/kg
13 | CCN1CCc2ncc(N)nc2CC1.Cl.Cl [A, 7-Ethyl-2-amino-6,7,8,9-tetrahydro-5H-pyrazino[2,3-d]azepine dihydrochloride] | 480 μgm/kg

System: not listed separately
Test: Acute toxicity in mice
Conditions: mouse, in vivo, iv, observation time 14 days
Description: The acute toxicity was determined in mice after oral or intravenous administration. Observation time: 14 days.

Row | SMILES | LD50 at 336 h
14 | CCN1CCc2ncc(N)nc2CC1.Cl.Cl [A, 7-Ethyl-2-amino-6,7,8,9-tetrahydro-5H-pyrazino[2,3-d]azepine dihydrochloride] | 215 mg/kg

Same assay, conditions: mouse, in vivo, po, observation time 14 days

Row | SMILES | LD50 at 336 h
15 | CCN1CCc2ncc(N)nc2CC1.Cl.Cl [A, 7-Ethyl-2-amino-6,7,8,9-tetrahydro-5H-pyrazino[2,3-d]azepine dihydrochloride] | 1250 mg/kg
